Measurements taken from the NIST ThermoML archive (doi:10.1021/je0601816).

Assay: xn = mol fraction of the nth substance listed
Conditions: 100 kPa, Liquid, Taylor dispersion method, x1 = 0

SMILES	binary diffusion coefficient (273.2 K) [m2/s]	binary diffusion coefficient (293.2 K) [m2/s]	binary diffusion coefficient (298.2 K) [m2/s]	binary diffusion coefficient (313.2 K) [m2/s]	binary diffusion coefficient (333.2 K) [m2/s]	binary diffusion coefficient (353.2 K) [m2/s]
O=C[C@H](O)[C@@H](O)[C@@H](O)[C@H](O)CO [(+)-galactose] + O	3.19e-10	6.25e-10	7.06e-10	1.01e-09	1.51e-09	2.17e-09
O=C[C@H](O)[C@@H](O)[C@H](O)[C@H](O)CO [D-glucose] + O	3.23e-10	6.05e-10	6.76e-10	9.97e-10	1.49e-09	2.13e-09
O=C[C@@H](O)[C@@H](O)[C@H](O)[C@H](O)CO [D-mannose] + O	3.34e-10	6.2e-10	7.04e-10	1.02e-09	1.59e-09	2.16e-09
OC[C@H]1O[C@@](CO)(O[C@H]2O[C@H](CO)[C@@H](O)[C@H](O)[C@H]2O)[C@@H](O)[C@@H]1O [D-sucrose] + O	2.55e-10	4.87e-10	5.46e-10	7.92e-10	1.17e-09	1.69e-09
O=C[C@H](O)[C@@H](O)[C@H](O)CO [D-xylose] + O	3.48e-10	6.65e-10	7.69e-10	1.11e-09	1.64e-09	2.33e-09
O=C[C@@H](O)[C@H](O)[C@H](O)CO [D-(-)-arabinose] + O	3.59e-10	6.82e-10	7.73e-10	1.11e-09	1.67e-09	2.37e-09
